Results: ChEMBL document CHEMBL1139078, “ortho-Substituted azoles as selective and dual inhibitors of VEGF receptors 1 and 2” (Bioorg Med Chem Lett, 2007)

Assays:
[1] = target: T1, Vascular endothelial growth factor receptor 2 (Homo sapiens, UniProt P35968); experiment: Inhibition of VEGFR2 by cell-based assay; assay type: functional
[2] = Intrinsic permeability across Caco-2 cell monolayers; details: human
[3] = target: T1, Vascular endothelial growth factor receptor 2; experiment: Inhibition of VEGFR2 by [32P]ATP-competitive radioassay
[4] = target: T1, Vascular endothelial growth factor receptor 2; experiment: Inhibition of VEGFR2 by HTRF assay
[5] = target: Vascular endothelial growth factor receptor 1 (Homo sapiens, UniProt P17948); experiment: Inhibition of VEGFR1 by HTRF assay
Chain of Vascular endothelial growth factor receptor 1 (P17948 whole entry, looked up): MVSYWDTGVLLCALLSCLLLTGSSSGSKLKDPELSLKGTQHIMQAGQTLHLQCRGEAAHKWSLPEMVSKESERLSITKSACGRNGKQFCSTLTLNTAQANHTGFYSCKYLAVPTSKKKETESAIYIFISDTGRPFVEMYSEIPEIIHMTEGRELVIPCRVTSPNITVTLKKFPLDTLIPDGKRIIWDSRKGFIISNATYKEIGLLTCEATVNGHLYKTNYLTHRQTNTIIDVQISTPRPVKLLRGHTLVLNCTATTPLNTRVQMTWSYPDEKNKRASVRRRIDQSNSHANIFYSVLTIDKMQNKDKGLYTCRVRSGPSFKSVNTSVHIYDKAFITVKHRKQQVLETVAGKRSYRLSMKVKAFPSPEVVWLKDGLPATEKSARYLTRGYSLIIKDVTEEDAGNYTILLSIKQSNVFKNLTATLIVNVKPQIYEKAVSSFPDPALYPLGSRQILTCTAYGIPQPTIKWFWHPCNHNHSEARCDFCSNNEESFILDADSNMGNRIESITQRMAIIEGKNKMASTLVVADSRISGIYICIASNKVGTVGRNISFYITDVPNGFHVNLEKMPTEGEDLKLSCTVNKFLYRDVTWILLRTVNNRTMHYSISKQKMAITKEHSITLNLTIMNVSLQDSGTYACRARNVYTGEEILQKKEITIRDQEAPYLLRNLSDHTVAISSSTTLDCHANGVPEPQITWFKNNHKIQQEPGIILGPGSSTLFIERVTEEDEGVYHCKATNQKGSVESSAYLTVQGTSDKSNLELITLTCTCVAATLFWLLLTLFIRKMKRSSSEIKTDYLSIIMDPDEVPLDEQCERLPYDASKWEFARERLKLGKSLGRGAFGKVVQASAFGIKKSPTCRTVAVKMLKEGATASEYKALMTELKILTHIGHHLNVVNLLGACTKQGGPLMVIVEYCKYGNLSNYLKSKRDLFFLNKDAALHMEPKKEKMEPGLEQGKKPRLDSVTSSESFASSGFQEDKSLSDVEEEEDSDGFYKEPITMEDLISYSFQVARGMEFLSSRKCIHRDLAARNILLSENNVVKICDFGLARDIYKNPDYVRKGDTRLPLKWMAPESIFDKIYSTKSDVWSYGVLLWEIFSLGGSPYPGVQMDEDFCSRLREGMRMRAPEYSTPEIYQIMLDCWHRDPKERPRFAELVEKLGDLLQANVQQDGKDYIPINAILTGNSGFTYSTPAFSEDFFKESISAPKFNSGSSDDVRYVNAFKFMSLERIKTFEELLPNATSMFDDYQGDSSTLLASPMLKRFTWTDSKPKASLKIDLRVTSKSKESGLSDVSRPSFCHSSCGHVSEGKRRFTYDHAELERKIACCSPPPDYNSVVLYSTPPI

T1 sequence (P35968 whole entry): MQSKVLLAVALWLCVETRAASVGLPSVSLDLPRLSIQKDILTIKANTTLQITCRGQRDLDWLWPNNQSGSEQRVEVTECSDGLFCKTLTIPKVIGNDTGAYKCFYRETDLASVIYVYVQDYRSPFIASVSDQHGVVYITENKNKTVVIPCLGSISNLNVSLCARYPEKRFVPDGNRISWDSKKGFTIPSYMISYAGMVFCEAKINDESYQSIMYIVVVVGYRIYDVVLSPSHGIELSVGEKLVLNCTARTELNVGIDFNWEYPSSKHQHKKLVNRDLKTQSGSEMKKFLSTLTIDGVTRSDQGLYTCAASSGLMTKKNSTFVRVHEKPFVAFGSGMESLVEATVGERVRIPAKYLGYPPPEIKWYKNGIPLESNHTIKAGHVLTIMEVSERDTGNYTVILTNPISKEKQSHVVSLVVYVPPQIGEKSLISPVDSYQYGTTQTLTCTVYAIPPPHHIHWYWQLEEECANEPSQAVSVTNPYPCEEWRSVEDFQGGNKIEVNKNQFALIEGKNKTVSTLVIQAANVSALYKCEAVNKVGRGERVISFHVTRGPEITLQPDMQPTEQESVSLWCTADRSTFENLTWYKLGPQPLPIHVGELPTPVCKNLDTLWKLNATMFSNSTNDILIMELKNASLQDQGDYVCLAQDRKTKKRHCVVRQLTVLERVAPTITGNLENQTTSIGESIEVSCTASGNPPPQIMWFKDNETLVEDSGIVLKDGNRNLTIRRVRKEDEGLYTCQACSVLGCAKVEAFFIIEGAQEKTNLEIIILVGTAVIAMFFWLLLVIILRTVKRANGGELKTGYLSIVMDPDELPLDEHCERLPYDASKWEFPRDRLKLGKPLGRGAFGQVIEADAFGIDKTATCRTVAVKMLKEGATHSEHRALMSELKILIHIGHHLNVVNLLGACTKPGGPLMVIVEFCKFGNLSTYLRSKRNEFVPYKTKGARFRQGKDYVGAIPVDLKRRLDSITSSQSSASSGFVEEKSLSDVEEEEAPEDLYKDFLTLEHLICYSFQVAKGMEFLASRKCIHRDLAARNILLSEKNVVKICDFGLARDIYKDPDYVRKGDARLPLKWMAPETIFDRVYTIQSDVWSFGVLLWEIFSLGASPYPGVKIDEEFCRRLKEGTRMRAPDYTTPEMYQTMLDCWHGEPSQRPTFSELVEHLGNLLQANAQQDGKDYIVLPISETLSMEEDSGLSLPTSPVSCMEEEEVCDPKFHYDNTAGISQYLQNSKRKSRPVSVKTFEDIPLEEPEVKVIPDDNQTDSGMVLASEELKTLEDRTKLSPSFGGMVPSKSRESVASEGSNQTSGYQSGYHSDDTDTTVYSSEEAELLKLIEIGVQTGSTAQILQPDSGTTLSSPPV

For `Cc1cc(NC(=O)c2c(NCc3ccncc3)ncn2C)ccc1C(F)(F)F`, the IC50 [1] was 64 nM, the Papp [2] was 7.1 ×10⁻⁶ cm/s and the Ki [3] was 160 nM. It also gave an IC50 [4] of 210 nM and an IC50 [5] of 510 nM.
